From publication PMC12040169 (PLOS Biology, 2025)

Assay: in vitro
Details: human, hela cells, % viability

O=C(NCc1cccc(OCC2CCCO2)c1)C1C2CCCCC21 (stereo not drawn) [CBK281517]
viability at 28.5 h, 10 µM: 94.3%

Cc1c(CNCCN2CCCC2=O)c2ccccc2n1C [CBK281519]
viability at 28.5 h, 10 µM: 84.6%

c1csc(CN2CCC(c3cc4nccnc4[nH]3)CC2)c1 [CBK281520]
viability at 28.5 h, 10 µM: 88.9%

CNS(=O)(=O)c1ccc2c(c1)CCN2C(=O)C1C2CCCCC21 (stereo not drawn) [CBK281521]
viability at 28.5 h, 10 µM: 100%

Fc1cccc(Nc2nc(C3CCNCC3)c3ccccn23)c1 [CBK281522]
viability at 28.5 h, 10 µM: 107%

CCn1c(C(C)C)nc2cc(NC(=O)Cc3c(C)noc3C)ccc21 [CBK281527]
viability at 28.5 h, 10 µM: 90.3%

CC(CCCc1ccccc1)NC(=O)c1cc2c([nH]c1=O)CCC2 (stereo not drawn) [CBK281528]
viability at 28.5 h, 10 µM: 87.6%

CC(Cn1cncn1)C(=O)N1CCC(CCc2ccccc2F)CC1 (stereo not drawn) [CBK281529]
viability at 28.5 h, 10 µM: 96%

CCn1nc(C)c(C(C)NC(=O)CC(C)n2nc(C)cc2C)c1C (stereo not drawn) [CBK281533]
viability at 28.5 h, 10 µM: 78.9%

CCn1nc(C)c(C(C)NC(=O)c2ccn(C(F)F)n2)c1C (stereo not drawn) [CBK281534]
viability at 28.5 h, 10 µM: 79.8%

CC(C)n1nccc1NC(=O)CCn1ccnc1-c1ccccc1 [CBK281536]
viability at 28.5 h, 10 µM: 88.3%

Cc1nn(C(C)CC(=O)Nc2ccnn2C(C)C)c(C)c1Cl (stereo not drawn) [CBK281537]
viability at 28.5 h, 10 µM: 95.8%

Cc1cc(C)n(C(C)CC(=O)Nc2cccc(OC(C)C)c2)n1 (stereo not drawn) [CBK281538]
viability at 28.5 h, 10 µM: 96.5%

Cc1nccn1CC(=O)N1CCCC1(C)C(=O)NC1CCCC1 (stereo not drawn) [CBK281539]
viability at 28.5 h, 10 µM: 98.7%

Clc1ccc(OCC2CCN(Cc3c[nH]cn3)CC2)cc1 [CBK281543]
viability at 28.5 h, 10 µM: 82.7%

CC(Oc1ccccc1F)C(=O)N1CCCCC1CN(C)C (stereo not drawn) [CBK281544]
viability at 28.5 h, 10 µM: 89.5%

CCCn1ncc(C(=O)N2CCc3c([nH]c4ccccc34)C2C)c1C (stereo not drawn) [CBK281546]
viability at 28.5 h, 10 µM: 98.3%

CCCn1c(C)cc2cc(NC(=O)C(C)n3ccnc3)ccc21 (stereo not drawn) [CBK281547]
viability at 28.5 h, 10 µM: 85.8%

CCCn1c(C)cc2cc(NC(=O)Cn3ccnc3)ccc21 [CBK281549]
viability at 28.5 h, 10 µM: 92.4%

CCn1nc(C)c(C(C)NC(=O)C(C)n2cc(Cl)cn2)c1C (stereo not drawn) [CBK281550]
viability at 28.5 h, 10 µM: 89.7%

CCn1cc(-c2cncn2CCN(C)C2CCCC2)cn1 [CBK281551]
viability at 28.5 h, 10 µM: 90.7%

CCn1cncc1C(=O)NCC1(c2ccccc2F)CCOCC1 [CBK281555]
viability at 28.5 h, 10 µM: 90.9%

CCn1cc(-c2cncn2CC(C)N2CCCCC2)cn1 (stereo not drawn) [CBK281556]
viability at 28.5 h, 10 µM: 103%

Cc1nn(C(C)CC(=O)NCCN2CCC(C)CC2)c(C)c1Cl (stereo not drawn) [CBK281558]
viability at 28.5 h, 10 µM: 90.2%

O=C(NCCCc1ccc(Cl)cc1)c1cc2c([nH]c1=O)CCC2 [CBK281560]
viability at 28.5 h, 10 µM: 89%

CCc1cc(CNC(=O)C2CN(Cc3ccc(Cl)cc3)C2)on1 [CBK281564]
viability at 28.5 h, 10 µM: 97.8%

CCn1cc(-c2cncn2CC(C)N2CCC(C)CC2)cn1 (stereo not drawn) [CBK281565]
viability at 28.5 h, 10 µM: 91.7%

Cc1cc(C)n(C)c(=O)c1C(=O)NCCCc1ccc(Cl)cc1 [CBK281566]
viability at 28.5 h, 10 µM: 88.2%

Cc1ccc2c(NC(=O)c3cc4c([nH]c3=O)CCC4)c(C)ccc2n1 [CBK281568]
viability at 28.5 h, 10 µM: 93%

Cc1nn(CC(C)C(=O)NCCN2CCC(C)CC2)c(C)c1Cl (stereo not drawn) [CBK281570]
viability at 28.5 h, 10 µM: 94.2%

Cc1nn(CCC(=O)NCCN2CCC(C)CC2)c(C)c1Cl [CBK281571]
viability at 28.5 h, 10 µM: 104%

Cc1ccc(C2(CNC(=O)CCc3ccncc3)CCOCC2)cc1 [CBK281574]
viability at 28.5 h, 10 µM: 93.7%

Cn1c(C(=O)NCCc2cnccn2)cc2cc(Cl)ccc21 [CBK281575]
viability at 28.5 h, 10 µM: 90.9%

Cn1c(CN2CCN(C3CCCC3)C(=O)C2)nc2ccccc21 [CBK281577]
viability at 28.5 h, 10 µM: 100%

Cc1nc(-c2n[nH]cc2-c2ccccc2F)sc1CCN [CBK281578]
viability at 28.5 h, 10 µM: 102%

Cc1nccn1Cc1ccccc1C(=O)NCCn1ccnc1 [CBK281580]
viability at 28.5 h, 10 µM: 84.7%

Cc1cc(=O)n(CC(=O)NCCn2ccnc2)c2ccccc12 [CBK281583]
viability at 28.5 h, 10 µM: 94.3%

Cc1cc(C)n(-c2cccc(C(=O)NCCn3ccnc3)c2)n1 [CBK281585]
viability at 28.5 h, 10 µM: 109%

CCc1[nH]c(=O)c(C(=O)N2CCc3[nH]c4c(C)cccc4c3C2)cc1C [CBK281586]
viability at 28.5 h, 10 µM: 97.6%

Cc1nn(C)c(C)c1CN(C)C(=O)c1cc(-c2ccc(F)cc2)on1 [CBK281587]
viability at 28.5 h, 10 µM: 82.2%

Cc1ccc(C2(C(=O)NCCCn3ccnc3C)CCOCC2)cc1 [CBK281588]
viability at 28.5 h, 10 µM: 91.6%

Cc1nn(C)c(C)c1CN(C)S(=O)(=O)Cc1ccc(F)cc1 [CBK281590]
viability at 28.5 h, 10 µM: 86.8%

Cc1ccc(C(NC(=O)Cn2ccnc2)c2ccncc2)cc1C (stereo not drawn) [CBK281591]
viability at 28.5 h, 10 µM: 87.4%

CCn1nc(C)c(-c2cncn2CC(C)N2CCC(C)CC2)c1C (stereo not drawn) [CBK281593]
viability at 28.5 h, 10 µM: 103%

Cc1nn(C)cc1C(C)NC(=O)C1(c2ccccc2F)CCOCC1 (stereo not drawn) [CBK281594]
viability at 28.5 h, 10 µM: 80.8%

CC1CCN(CCNC(=O)CCc2nc3ccc(Cl)cc3[nH]2)CC1 [CBK281599]
viability at 28.5 h, 10 µM: 88.7%

Cc1cccc2c3c([nH]c12)CCN(C(=O)C(C)N1CCOCC1)C3 (stereo not drawn) [CBK281600]
viability at 28.5 h, 10 µM: 89.2%

CC(NC(=O)CCN1CCN(C)CC1)c1cc2cc(Cl)ccc2o1 (stereo not drawn) [CBK281601]
viability at 28.5 h, 10 µM: 102%

Cn1nccc1-c1cc(C(=O)NC2(C)CCC2)c2ccccc2n1 [CBK281605]
viability at 28.5 h, 10 µM: 92.7%

CC1(NC(=O)Cn2c(C(F)(F)F)nc3ccccc32)CCC1 [CBK281606]
viability at 28.5 h, 10 µM: 82.2%

Cc1nc(CN2CCN(C(=O)C3C4CCCCC43)CC2)cs1 (stereo not drawn) [CBK281607]
viability at 28.5 h, 10 µM: 93.8%

CCc1nc2cc(NC(=O)Cn3cc(C)cn3)ccc2n1CC [CBK281608]
viability at 28.5 h, 10 µM: 84.9%

CCc1nc2cc(NC(=O)CCCn3ccnc3C)ccc2n1CC [CBK281609]
viability at 28.5 h, 10 µM: 101%

CC1(NC(=O)CC2C(=O)NCCN2Cc2cccc(F)c2)CCC1 (stereo not drawn) [CBK281611]
viability at 28.5 h, 10 µM: 80.9%

CC(NC(=O)C1CC(=O)OC1(C)C)c1ccc2c(c1)CCCO2 (stereo not drawn) [CBK281613]
viability at 28.5 h, 10 µM: 88.4%

Cc1cc(C)n(C2CCN(Cc3c(C)nc4ccccn34)CC2)n1 [CBK281614]
viability at 28.5 h, 10 µM: 83.4%

Cn1nccc1CN1CCC(Oc2ccccc2F)CC1 [CBK281618]
viability at 28.5 h, 10 µM: 92%

Cc1nccn1CC1CCCN(Cc2nc3ccccc3[nH]2)C1 (stereo not drawn) [CBK281619]
viability at 28.5 h, 10 µM: 83.3%

Cc1cc(C)n(C2CCN(Cc3nc4ccccc4[nH]3)CC2)n1 [CBK281620]
viability at 28.5 h, 10 µM: 103%

Cc1ccc(OCCn2cncc2-c2cn(C)nc2C)cc1 [CBK281626]
viability at 28.5 h, 10 µM: 93.7%

Cc1nn(CCNC(=O)C2CC(=O)N(CC(C)C)C2)c(C)c1C (stereo not drawn) [CBK281630]
viability at 28.5 h, 10 µM: 88%

O=C(NC1CCNC1)c1ccc(F)cc1 (stereo not drawn) [CBK281632]
viability at 28.5 h, 10 µM: 87.2%

Cc1ccnn1CCNC(=O)C(C)Cc1cccs1 (stereo not drawn) [CBK281633]
viability at 28.5 h, 10 µM: 109%

Cc1nc2ccc(NC(=O)CCn3nc(C)c(Cl)c3C)cc2s1 [CBK281634]
viability at 28.5 h, 10 µM: 106%

Cc1ccc2oc(C(=O)N(CCO)CCc3ccncc3)c(C)c2c1 [CBK281642]
viability at 28.5 h, 10 µM: 106%

O=C(c1cc2c(F)cccc2[nH]1)N(CCO)CCc1ccncc1 [CBK281644]
viability at 28.5 h, 10 µM: 98.3%

Cc1cc(C)n(CC(C)NC(=O)C(c2ccccc2)N2CCCC2)n1 (stereo not drawn) [CBK281645]
viability at 28.5 h, 10 µM: 82.1%

Cc1nccn1CCCNC(=O)c1cccc(N2CCCCC2)c1 [CBK281646]
viability at 28.5 h, 10 µM: 91.4%

Fc1cccc(-c2nc3c(s2)CN(C2CCOCC2)CC3)c1 [CBK281647]
viability at 28.5 h, 10 µM: 87%

Cc1c(-c2cc(C(=O)NC(C)C3CC4CCC3C4)on2)cnn1C (stereo not drawn) [CBK281651]
viability at 28.5 h, 10 µM: 92.8%

Cc1c(-c2cc(C(=O)NC(C)C3CC4CCC3C4)no2)cnn1C (stereo not drawn) [CBK281653]
viability at 28.5 h, 10 µM: 91.3%

CC(NC(=O)c1ccccc1Cn1cncn1)C1CC2CCC1C2 (stereo not drawn) [CBK281654]
viability at 28.5 h, 10 µM: 85.8%

Cc1cccc2c3c([nH]c12)CCN(C(=O)[C@@H]1C[C@@H]2C=C[C@H]1C2)C3 [CBK281656]
viability at 28.5 h, 10 µM: 93.6%

C[C@]12CN(C(=O)c3ccccc3)C[C@H]1NC(=O)c1ccccc1C2=O [CBK281657]
viability at 28.5 h, 10 µM: 102%

C[C@]12CN(C(=O)C3CC3)C[C@H]1NC(=O)c1ccccc1C2=O [CBK281660]
viability at 28.5 h, 10 µM: 102%

C=C1C2(C(=O)NCCn3nc(C)c(Cl)c3C)CCC(C2)C1(C)C (stereo not drawn) [CBK281661]
viability at 28.5 h, 10 µM: 81.5%

CC(NC(=O)C1CC(=O)N(c2cccc(F)c2)C1)C1CC2CCC1C2 (stereo not drawn) [CBK281664]
viability at 28.5 h, 10 µM: 99.9%

O=C(NCCCc1nc2cc(F)ccc2[nH]1)[C@@H]1C[C@@H]2C=C[C@H]1C2 [CBK281665]
viability at 28.5 h, 10 µM: 103%

CC(=O)NCc1ccc(-c2cc(CN(C)C)n(C)n2)cc1 [CBK281667]
viability at 28.5 h, 10 µM: 99.1%

CCC(=O)NCc1ccc(-c2cc(CN(C)C)n(C)n2)cc1 [CBK281668]
viability at 28.5 h, 10 µM: 103%

Cc1c(C)n(C)c2ccc(C(=O)NCCC(=O)N3CCOCC3)cc12 [CBK281669]
viability at 28.5 h, 10 µM: 65.8%

Cc1cc(C)n(CC(C)NC(=O)c2cc(C(F)(F)F)nn2C)n1 (stereo not drawn) [CBK281671]
viability at 28.5 h, 10 µM: 92.2%

COCC(=O)N1CCc2nc(-c3ccc(F)cc3)sc2C1 [CBK281673]
viability at 28.5 h, 10 µM: 107%

CN1CCCC(Cc2cc(-c3ccccc3)no2)(C(=O)N(C)C)C1 (stereo not drawn) [CBK281674]
viability at 28.5 h, 10 µM: 102%

CC1CCCCN1CC(C)(C)NC(=O)c1cc(C2CC2)on1 (stereo not drawn) [CBK281676]
viability at 28.5 h, 10 µM: 100%

O=C(O)C1(Cc2ccc(-c3cccs3)cc2)CCNC1 (stereo not drawn) [CBK281679]
viability at 28.5 h, 10 µM: 90.8%

Cc1nn(CCC(=O)NC2CCOc3ccccc32)c(C)c1Cl (stereo not drawn) [CBK281684]
viability at 28.5 h, 10 µM: 96.7%

CCN1C(=O)c2ccccc2C(=O)[C@@]2(C)CN(C(C)=O)C[C@@H]12 [CBK281686]
viability at 28.5 h, 10 µM: 89.7%

O=C(O)C1(Cc2ccc(-c3ccccc3)cc2)CCNC1 (stereo not drawn) [CBK281687]
viability at 28.5 h, 10 µM: 91.2%

O=C(O)C1(Cc2cccc(-c3cccs3)c2)CCCNC1 (stereo not drawn) [CBK281688]
viability at 28.5 h, 10 µM: 90.5%

CC(=O)N(C)[C@H]1CC[C@]2(CC1)CNC(=O)c1cc(C)ccc1O2 [CBK281690]
viability at 28.5 h, 10 µM: 101%

Cn1cc2c(n1)CC1CCC2N1C(=O)c1ccc(F)c(F)c1 (stereo not drawn) [CBK281691]
viability at 28.5 h, 10 µM: 92.6%

CC(C)C(=O)NCCn1nc(-c2ccccc2F)cc1CN(C)C [CBK281693]
viability at 28.5 h, 10 µM: 91.4%
